From BigSolDB 2.1

CC(=O)N1CN(C(C)=O)CN(C(C)=O)C1
solubility (mole fraction)
Settings	298 K	303 K	308 K	313 K	318 K
in acetonitrile	0.0478	0.0695	0.102	0.142	0.202
in ethyl acetate	0.0153	0.0178	0.0198	0.0236	0.0271
in methanol	0.204	0.238	0.283	0.335	0.395
in water	0.00434	0.00612	0.0085	0.0125	0.018
